Measured values published in patent publication US10865384B2, “2,4,5-tri-substituted azole-based casein kinase 1 inhibitors as inducers for cardiomyogenesis” (AGENCY FOR SCIENCE, TECHNOLOGY AND RESEARCH, priority 2014, dated 2020).
Read-outs that look alike come from different tables or passages of the source.

Experiments:
CK1ϵ = CK1ϵ (Homo sapiens (Human), UniProt P49674); assay: LanthaScreen Eu kinase binding assay, CK1ϵ
p38α MAPK [1] = biological target: T1, p38α MAPK (Homo sapiens (Human), UniProt Q16539); assay: LanthaScreen Eu kinase binding assay, p38 MAPK (IM-32 to IM-44); conditions: LanthaScreen Eu binding assay (IM-32 to IM-44); read-out: p38α MAPK IC50 ± SEM
T1 sequence (Q16539 whole entry, looked up): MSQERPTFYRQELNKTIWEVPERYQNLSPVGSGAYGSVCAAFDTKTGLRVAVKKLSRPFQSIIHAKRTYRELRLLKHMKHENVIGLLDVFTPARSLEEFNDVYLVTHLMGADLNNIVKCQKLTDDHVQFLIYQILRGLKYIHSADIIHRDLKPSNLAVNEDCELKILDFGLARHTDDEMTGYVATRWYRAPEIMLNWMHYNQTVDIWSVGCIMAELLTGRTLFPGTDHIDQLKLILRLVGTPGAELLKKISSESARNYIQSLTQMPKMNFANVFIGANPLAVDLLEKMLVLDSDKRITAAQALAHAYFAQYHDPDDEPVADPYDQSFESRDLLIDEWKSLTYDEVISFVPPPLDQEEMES
Description: The p38 MAPK IC50 values of selected compounds except IM-32 to IM-44 were determined using the HitHunter™ p38 MAP kinase binding assay from DiscoveRx Corporation (Fremont, Calif., USA). The p38 MAPK IC50 values of IM-32 to IM-44 and the CK1 IC50 values of selected compounds were determined using LanthaScreen™ Eu kinase binding assay from Invitrogen (Life Technologies, Carlsbad, Calif., USA). The assays were performed following the manufacturers' protocols in white 384-well plates (Cat. No. 3572; Corning Incorporated, Corning, N.Y., USA). SB203580 was used as the control in all assays. For the HitHunter™ p38 MAP kinase binding assay the compounds were dissolved in DMSO (5 mM stocks) and diluted to a final concentration of 2% (vol/vol) DMSO for all assays. Recombinant GST-tagged active p38α MAP kinase enzyme (Millipore, Billerica, Mass., USA) was used for the HitHunter™ p38 MAP kinase binding assay. For the LanthaScreen™ Eu kinase binding assay the compounds were dissolved in DMSO (5 mM stocks) and diluted to a final concentration of 1% (vol/vol) DMSO for all assays. Each data point was done in triplicate. The assay was run using JANUS Automated Workstation according to the protocol developed using WinPREP software (Perkin Elmer Inc., Waltham, Mass., USA). Tecan Infinite® M1000 microplate reader (Tecan Group Ltd., Minnedorf, Switzerland) was used for luminescence measurements (HitHunter™ p38 MAP kinase binding assay) and fluorescence measurements (LanthaScreen™ Eu kinase binding assay; ex=340 nm, em=665, 615 nm). All data analysis was performed using GraphPad Prism 5 software (GraphPad Software Inc.). Inhibition curves and IC50 values were generated by nonlinear regression analysis and data represent mean±SEM.
The in vitro IC50 values of the synthesized compounds against the relevant kinase targets are summarized. The IC50 values were determined using either the HitHunter™ p38 MAPK binding assay from DiscoveRx or the LanthaScreen™ Eu kinase binding assay (for p38alpha MAPK, CK1delta, and CK1epsilon) from Invitrogen.

CK1δ = CK1δ (Homo sapiens (Human), UniProt P48730); assay: LanthaScreen Eu kinase binding assay, CK1δ
Sequence of CK1δ (P48730 whole entry): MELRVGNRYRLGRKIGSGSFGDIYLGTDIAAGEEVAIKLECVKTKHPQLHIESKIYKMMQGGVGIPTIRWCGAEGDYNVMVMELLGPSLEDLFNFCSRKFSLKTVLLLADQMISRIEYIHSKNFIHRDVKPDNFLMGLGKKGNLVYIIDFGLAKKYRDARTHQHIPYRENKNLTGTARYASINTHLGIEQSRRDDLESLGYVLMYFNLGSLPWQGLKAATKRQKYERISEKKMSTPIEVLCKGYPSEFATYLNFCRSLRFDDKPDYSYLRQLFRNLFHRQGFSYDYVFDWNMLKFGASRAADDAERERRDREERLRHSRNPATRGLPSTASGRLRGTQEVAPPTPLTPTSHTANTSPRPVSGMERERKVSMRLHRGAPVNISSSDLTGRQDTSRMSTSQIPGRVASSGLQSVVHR

p38α MAPK [2] = biological target: T1, p38α MAPK; assay: HitHunter p38 MAP kinase binding assay
hESC3 Nkx2.5eGFP/w cells = assay: Differentiation in 96-U bottom ultra-low attachment well plates, GFP area imaging; type: cell-based, human; conditions: 5 μM; for Average GFP %: after CHIR99021, read on day 14, GFP area over embryoid body size; for Average GFP μm^2 / Average Area μm^2: day 14; for Average Area μm^2: embryoid body size
p38α MAPK [3] = conditions: read-out: IC50 (published by companies), p38α MAPK inhibition; cited from earlier work
H3 hESCs Nkx2.5eGFP/w = assay: High yield cardiomyocyte differentiation after 24 h CHIR99021 pre-treatment; type: cell-based, human; conditions: CHIR99021 only; CHIR99021 with SB203580 (days 1-8); CHIR99021 with IM-31 (days 4-8)

Sequence of CK1ϵ (P49674 whole entry): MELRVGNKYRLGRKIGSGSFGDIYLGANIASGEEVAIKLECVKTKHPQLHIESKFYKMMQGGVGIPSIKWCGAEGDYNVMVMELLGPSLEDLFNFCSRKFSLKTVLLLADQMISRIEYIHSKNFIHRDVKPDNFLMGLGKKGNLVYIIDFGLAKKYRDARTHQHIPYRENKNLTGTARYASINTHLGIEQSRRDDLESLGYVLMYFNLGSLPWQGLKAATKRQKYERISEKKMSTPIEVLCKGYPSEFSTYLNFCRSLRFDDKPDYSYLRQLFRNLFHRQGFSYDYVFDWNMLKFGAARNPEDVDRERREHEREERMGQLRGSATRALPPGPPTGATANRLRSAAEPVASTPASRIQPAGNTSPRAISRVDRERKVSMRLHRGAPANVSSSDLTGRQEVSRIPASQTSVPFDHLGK

Structure (SMILES): Cc1cccc(-c2nc(-c3ccc([N+](=O)[O-])cc3)[nH]c2-c2ccncc2)c1 [IM-32, 4-(2-(4-nitrophenyl)-4(5)-(m-tolyl)-1H-imidazol-5(4)-yl)pyridine]
- inhibition at 1 µM (CK1ϵ): 47%
- IC50 (p38α MAPK [1]): 4.4 ± 2.4 nM
- inhibition at 1 µM (CK1δ): 31%

Structure (SMILES): Cc1cccc(-c2nc(-c3ccc(S(C)(=O)=O)cc3)[nH]c2-c2ccncc2)c1 [IM-33, 4-(2-(4-(methylsulfonyl)phenyl)-4(5)-(m-tolyl)-1H-imidazol-5(4)-yl)pyridine]
- inhibition at 1 µM (CK1ϵ): 36%
- IC50 (p38α MAPK [1]): 9.5 ± 2.8 nM
- inhibition at 1 µM (CK1δ): 23%

Structure (SMILES): Cc1cccc(-c2nc(-c3ccc(C(=O)O)cc3)[nH]c2-c2ccncc2)c1 [IM-38, 4-(5(4)-(pyridin-4-yl)-4(5)-(m-tolyl)-1H-imidazol-2-yl)benzoic acid]
- IC50 (CK1ϵ; Table 3, read-out: IC50 Ck1ε): 1060 nM
- IC50 (CK1ϵ; read-out: CK1ϵ IC50 ± SEM): 1060 ± 108 nM
- IC50 (p38α MAPK [1]): 3.3 ± 1.1 nM
- IC50 (CK1δ; Table 3, read-out: IC50 CK1δ): 4710 nM
- IC50 (CK1δ; read-out: CK1δ IC50 ± SEM): 4710 ± 1620 nM

Structure (SMILES): Fc1ccc(-c2nc(-c3ccccc3F)[nH]c2-c2ccncc2)cc1 [IM-30, 4-(2-(2-fluorophenyl)-4(5)-(4-fluorophenyl)-1H-imidazol-5(4)-yl)pyridine]
- IC50 (p38α MAPK [2]; read-out: p38α MAPK IC50 ± SEM): 0.02 ± 0.004 µM
- IC50 (CK1ϵ; Table 3, read-out: IC50 Ck1ε): 32 nM
- IC50 (CK1ϵ; read-out: CK1ϵ IC50 ± SEM): 32 ± 4 nM
- Cardiogenic properties (hESC3 Nkx2.5eGFP/w cells; at specific time course (induction day 2 or 3)): higher cardiogenic properties as SB203580 and IWP-2
- Average GFP % (hESC3 Nkx2.5eGFP/w cells; Induction Day 2): 32.8%
- Average GFP μm^2 (hESC3 Nkx2.5eGFP/w cells; Induction Day 2): 250.1 μm^2
- Average Area μm^2 (hESC3 Nkx2.5eGFP/w cells; Induction Day 2): 816.0 μm^2
- Average GFP % (hESC3 Nkx2.5eGFP/w cells; Induction Day 3): 36.5%
- Average GFP μm^2 (hESC3 Nkx2.5eGFP/w cells; Induction Day 3): 354.1 μm^2
- Average Area μm^2 (hESC3 Nkx2.5eGFP/w cells; Induction Day 3): 968.7 μm^2
- IC50 (CK1δ; Table 3, read-out: IC50 CK1δ): 32 nM
- IC50 (CK1δ; read-out: CK1δ IC50 ± SEM): 32 ± 4 nM

Structure (SMILES): Cc1cccc(-c2nc(C#CCCO)[nH]c2-c2ccncc2)c1 [IM-41, 4-(5(4)-(pyridin-4-yl)-4(5)-(m-tolyl)-1H-imidazol-2-yl)but-3-yn-1-ol]
- inhibition at 1 µM (CK1ϵ): 38%
- IC50 (p38α MAPK [1]): 47 ± 5 nM
- inhibition at 1 µM (CK1δ): 11%

Structure (SMILES): Cc1cccc(-c2nc(-c3ccc(C(=N)NO)cc3)[nH]c2-c2ccncc2)c1 [IM-37, (Z)—N′-hydroxy-4-(5(4)-(pyridin-4-yl)-4(5)-(m-tolyl)-1H-imidazol-2-yl)benzimidamide]
- IC50 (CK1ϵ; Table 3, read-out: IC50 Ck1ε): 295 nM
- IC50 (CK1ϵ; read-out: CK1ϵ IC50 ± SEM): 295 ± 48 nM
- IC50 (p38α MAPK [1]): 3.2 ± 0.3 nM
- IC50 (CK1δ; Table 3, read-out: IC50 CK1δ): 889 nM
- IC50 (CK1δ; read-out: CK1δ IC50 ± SEM): 889 ± 290 nM

Structure (SMILES): COC(=O)c1ccc(-c2nc(-c3cccc(C)c3)c(-c3ccncc3)[nH]2)cc1 [IM-40, Methyl 4-(5(4)-(pyridin-4-yl)-4(5)-(m-tolyl)-1H-imidazol-2-yl)benzoate]
- inhibition at 1 µM (CK1ϵ): 43%
- IC50 (p38α MAPK [1]): 3.7 ± 0.7 nM
- inhibition at 1 µM (CK1δ): 10%

Structure (SMILES): Cc1cccc(-c2nc[nH]c2-c2ccncc2)c1 [IM-44, 4-(4(5)-(m-tolyl)-1H-imidazol-5(4)-yl)pyridine]
- inhibition at 1 µM (CK1ϵ): 42%
- IC50 (p38α MAPK [1]): 45 ± 8 nM
- inhibition at 1 µM (CK1δ): 4%

Structure (SMILES): C[S+]([O-])c1ccc(-c2nc(-c3ccc(F)cc3)c(-c3ccncc3)[nH]2)cc1 (stereo not shown) [SB203580, reference compound]
- Average beating frequency (H3 hESCs Nkx2.5eGFP/w): 25-30 beats per minute
- Beat count (percentage of EBs contracting within 10 s) (H3 hESCs Nkx2.5eGFP/w): over 75%
- Beating area (H3 hESCs Nkx2.5eGFP/w): > 5 mm^2
- Average GFP % (hESC3 Nkx2.5eGFP/w cells; Induction Day 2): 34.6%
- Average GFP μm^2 (hESC3 Nkx2.5eGFP/w cells; Induction Day 2): 217.8 μm^2
- Average Area μm^2 (hESC3 Nkx2.5eGFP/w cells; Induction Day 2): 655.4 μm^2
- Average GFP % (hESC3 Nkx2.5eGFP/w cells; Induction Day 3): 3.7%
- Average GFP μm^2 (hESC3 Nkx2.5eGFP/w cells; Induction Day 3): 40.2 μm^2
- Average Area μm^2 (hESC3 Nkx2.5eGFP/w cells; Induction Day 3): 814.2 μm^2

Structure (SMILES): Cc1cccc(-c2nc(C(O)C3=CCCCC3)[nH]c2-c2ccncc2)c1 (racemic) [IM-43, Cyclohex-1-en-1-yl(5(4)-(pyridin-4-yl)-4(5)-(m-tolyl)-1H-imidazol-2-yl)methanol]
- inhibition at 1 µM (CK1ϵ): 22%
- IC50 (p38α MAPK [1]): 11 ± 2 nM
- CK1δ inhibition at 1 μM (CK1δ): No inhibition at 1 μM

Structure (SMILES): Cc1cccc(-c2nc(-c3ccc(N)cc3)[nH]c2-c2ccncc2)c1 [IM-34, 4-(5(4)-(pyridin-4-yl)-4(5)-(m-tolyl)-1H-imidazol-2-yl)aniline]
- inhibition at 1 µM (CK1ϵ): 28%
- IC50 (p38α MAPK [1]): 2.8 ± 2 nM
- inhibition at 1 µM (CK1δ): 24%

Structure (SMILES): Cc1cccc(-c2nc(-c3ccc(C#N)cc3)[nH]c2-c2ccncc2)c1 [IM-36, 4-(5(4)-(pyridin-4-yl)-4(5)-(m-tolyl)-1H-imidazol-2-yl)benzonitrile]
- inhibition at 1 µM (CK1ϵ): 36%
- IC50 (p38α MAPK [1]): 5.3 ± 0.5 nM
- inhibition at 1 µM (CK1δ): 11%

Structure (SMILES): Fc1ccc(-c2nc(-c3ccc4ccccc4c3F)[nH]c2C2=CCOCC2)cc1 [IM-22, 5(4)-(3,6-dihydro-2H-pyran-4-yl)-2-(1-fluoronaphthalen-2-yl)-4(5)-(4-fluorophenyl)-1H-imidazole]
- IC50 (p38α MAPK [2]; read-out: p38α MAPK IC50 ± SEM): 2.31 ± 0.714 µM
- CK1ϵ inhibition at 1 μM (CK1ϵ): No inhibition at 1 μM
- inhibition at 1 µM (CK1δ): 14%

Structure (SMILES): Cc1cccc(-c2nc(-c3ccc(C(N)=O)cc3)[nH]c2-c2ccncc2)c1 [IM-39, 4-(5(4)-(pyridin-4-yl)-4(5)-(m-tolyl)-1H-imidazol-2-yl)benzamide]
- IC50 (CK1ϵ; Table 3, read-out: IC50 Ck1ε): 300 nM
- IC50 (CK1ϵ; read-out: CK1ϵ IC50 ± SEM): 300 ± 16 nM
- IC50 (p38α MAPK [1]): 2.7 ± 0.3 nM
- IC50 (CK1δ; Table 3, read-out: IC50 CK1δ): 787 nM
- IC50 (CK1δ; read-out: CK1δ IC50 ± SEM): 787 ± 98 nM

Structure (SMILES): Cc1cccc(-c2nc(-c3ccc(O)cc3)[nH]c2C2=CCOCC2)c1 [IM-15, 4-(5(4)-(3,6-dihydro-2H-pyran-4-yl)-4(5)-(m-tolyl)-1H-imidazol-2-yl)phenol]
- IC50 (p38α MAPK [2]; read-out: p38α MAPK IC50 ± SEM): 0.033 ± 0.002 µM
- CK1ϵ inhibition at 1 μM (CK1ϵ): No inhibition at 1 μM
- CK1δ inhibition at 1 μM (CK1δ): No inhibition at 1 μM

Structure (SMILES): Cc1cccc(-c2nc(-c3ccc(NS(C)(=O)=O)cc3)[nH]c2-c2ccncc2)c1 [IM-35, N-(4-(5(4)-(pyridin-4-yl)-4(5)-(m-tolyl)-1H-imidazol-2-yl)phenyl)methanesulfonamide]
- inhibition at 1 µM (CK1ϵ): 40%
- IC50 (p38α MAPK [1]): 5 nM
- inhibition at 1 µM (CK1δ): 13%

Structure (SMILES): Cc1cccc(-c2nc(-c3ccccc3O)[nH]c2C2=CCOCC2)c1 [IM-14, 2-(5(4)-(3,6-dihydro-2H-pyran-4-yl)-4(5)-(m-tolyl)-1H-imidazol-2-yl)phenol]
- IC50 (p38α MAPK [2]; bound given in μM, read-out: p38α MAPK IC50): > 5 µM
- inhibition at 1 µM (CK1ϵ): 3%
- CK1δ inhibition at 1 μM (CK1δ): No inhibition at 1 μM

Structure (SMILES): Cc1cccc(-c2nc(-c3ccccc3F)[nH]c2C2=CCOCC2)c1 [IM-06, 5(4)-(3,6-dihydro-2H-pyran-4-yl)-2-(2-fluorophenyl)-4(5)-(m-tolyl)-1H-imidazole]
- IC50 (p38α MAPK [2]; read-out: p38α MAPK IC50 ± SEM): 0.09 ± 0.02 µM
- CK1ϵ inhibition at 1 μM (CK1ϵ): No inhibition at 1 μM
- inhibition at 1 µM (CK1δ): 3%

Structure (SMILES): Cc1cccc(-c2nc(CN(C)C)[nH]c2-c2ccncc2)c1 [IM-42, N,N-dimethyl-1-(5(4)-(pyridin-4-yl)-4(5)-(m-tolyl)-1H-imidazol-2-yl)methanamine]
- inhibition at 1 µM (CK1ϵ): 29%
- IC50 (p38α MAPK [1]): 26 ± 3 nM
- inhibition at 1 µM (CK1δ): 3%

Structure (SMILES): Cc1cccc(-c2nc(-c3c(F)cccc3F)[nH]c2C2=CCOCC2)c1 [IM-18, 2-(2,6-difluorophenyl)-5(4)-(3,6-dihydro-2H-pyran-4-yl)-4(5)-(m-tolyl)-1H-imidazole]
- IC50 (p38α MAPK [2]; read-out: p38α MAPK IC50 ± SEM): 0.014 ± 0.002 µM
- IC50 (CK1ϵ; read-out: CK1ϵ IC50 ± SEM): 1240 ± 437 nM
- inhibition at 1 µM (CK1δ): 3%
